This note sets out measurements from US20250003994A1, “DEVICE AND METHOD FOR TREATING TISSUE OXYGEN DEFICIENT CONDITIONS” (IP SCIENCE LIMITED, priority 2021, published 2025).

Holding throughout (assay type): in vivo, human
The test system of assay [1] is clinically healthy volunteers. Nature of the assay: Tissue oxygen saturation (StO2) by near-infrared spectroscopy with stagnant ischemia, Example 2.4. The settings on record: for StO2: area under hyperemic curve post occlusion; for Effect of regular intake on StO2 / peripheral tissue oxygenation (in words): 4 weeks daily intake. On the procedure: (§1) For this study […] clinically healthy volunteers were recruited (age 35-57 years old), 30 male and 34 female). The subjects had not taken any medication or dietary supplements prior to the experiment. The volunteers were randomized and divided into 7 groups of 8 persons each. The participants were given a one-month supply of a particular nutraceutical or pharmaceutical. […] The daily dose for each product was taken in 1 capsule with the main meal of the day. The blood and StO2 were analyzed prior the trial and after (4 weeks). OCCL was analyzed as described above.
Thenar eminence and forearm muscles of the patients were used as a tissue target for the assessment of StO2, or combined level of oxygenated hemoglobin and myoglobin. StO2 was assessed by continuous wavelength near-infrared spectroscopy, NIRS, with wide-gap second-derivative (In Spectra, Hutchinson Technology, MN, USA), as known in the art. The measurements were taken at different time points. The recording was initiated after 15 min of rest in a supine position, before occlusion of the brachial artery. It was then continued during stagnant ischemia induced by rapidly inflating a cuff to 50 mm Hg above systolic BP. The ischemia lasted for 3 min, and the recording period lasted for an additional 5 min, until StO2 was stabilized
The area under the hyperemic curve, AUC, of the recorded signal for the settling time in the post occlusion period was then calculated in AUC mm, or % O2/min. All body and vascular parameters were recorded in the morning between 8 and 10 a.m.

Assay [2] deals with clinically healthy volunteers. In words: Blood LDL concentration, one-month intake, Example 2.4.
Text: Since oxygen solubility is higher in lipids than in aqueous media, it was interesting to examine a possible link between changes in OCCL and lipoprotein concentration in blood.
as §1

In assay [3] the test system is clinically healthy volunteers. Nature of the assay: Oxygen carrying capacity of plasma lipoproteins (OCCL) by catalymetry assay, one-month intake, Example 2.4. The settings on record: for Effect of regular intake on OCCL (in words): 4 weeks daily intake. On the procedure:
6 healthy volunteers (HV, 42-61 years old) and 4 CAD patients, eligible for the treadmill test (age 45-59 years old) were recruited for this study. Apart from assessing changes their electrocardiogram (ECG), pulse and blood pressure, samples and level of oxygen carrying capacity of plasma lipoproteins, OCCL, from venous blood was analyzed prior to the test and within 3-4 minutes afterward. The measurement was conducted using a catalymetry assay. In short, 10 μl of citrate plasma was added to 0.98 ml cuvette of 0.05 M phosphate buffer with 0.1 mM sodium ethylenediamine tetraacetic acid (EDTA-Na), containing 10^−6 M phenazine methosulphate and 10^−4 M nitro blue tetrazolium chloride (NBT). The reaction was initiated by adding 10 μl of 10^−4 M NADH.
The difference in absorption at λ=560 nm between starting point and after 60 seconds was measured by spectroscopy. This difference was used to measure oxygen-depended reduction of NBT. The results of this reaction were compared with the control reaction where instead of plasma 10 μl of the reaction buffer was added. The difference in the reduction of NBT with the analyzed sample and the control was used to calculate the amount of O2 in added plasma lipoproteins.
In this section the effects of regular intake of validated bioactive nutraceuticals on blood OCCL and tissue oxygen saturation (StO2) was evaluated.
as §1

Where [4] appears, read: 4 w, daily dose in 1 capsule with main meal.
Setting [5] is: 0 w (prior the trial), 8 per group.

Turning to `CC/C=C\C/C=C\C/C=C\C/C=C\C/C=C\C/C=C\CCC(=O)O` [DHA Omega 3], the StO2 in assay [1] (0 w (prior the trial)) is recorded as 74 ± 0.71 AUC mm; in assay [1] (setting [4]), 76 ± 0.92 AUC mm. Further, in assay [1], the “Effect of regular intake on StO2 / peripheral tissue oxygenation (in words)” value is “did not affect”. Moreover, the LDL worked out at 155 ± 9.2 mg/dL in assay [2] (setting [5]) and 154 ± 7.5 mg/dL in assay [2] (setting [4]). Further, the OCCL in assay [3] (0 w (prior the trial)) was 626 ± 34 ΔE at λ = 560 nm × 10^3; in assay [3] (setting [4]), 639 ± 42 ΔE at λ = 560 nm × 10^3. Besides, in assay [3], the “Effect of regular intake on OCCL (in words)” value (“Effect … on OCCL (in words)” for short) was “did not affect”.

Take `CC1=C(/C=C/C(C)=C/C=C/C(C)=C/C=C/C=C(C)/C=C/C=C(C)/C=C/C2=C(C)C(=O)[C@@H](O)CC2(C)C)C(C)(C)C[C@H](O)C1=O` [Astaxanthin]: the StO2 in assay [1] (0 w (prior the trial)) worked out at 77 ± 0.74 AUC mm; in assay [1] (setting [4]), 87 ± 0.84 AUC mm. In addition, the figures for the LDL in assay [2] (setting [5]) and in assay [2] (setting [4]) were 153 ± 7.3 mg/dL and 151 ± 6.2 mg/dL, respectively. In addition, the OCCL is given as 539 ± 52 ΔE at λ = 560 nm × 10^3 in assay [3] (0 w (prior the trial)) and 770 ± 57 ΔE at λ = 560 nm × 10^3 in assay [3] (setting [4]).

For `CCC(C)(C)C(=O)O[C@H]1C[C@@H](C)C=C2C=C[C@H](C)[C@H](CC[C@@H]3C[C@@H](O)CC(=O)O3)[C@H]21` [Simvastatin, reference compound], the StO2 in assay [1] (0 w (prior the trial)) came out at 70 ± 0.72 AUC mm; in assay [1] (setting [4]) it was 73 ± 0.81 AUC mm. In addition, the OCCL in assay [3] (0 w (prior the trial)) is recorded as 451 ± 51 ΔE at λ = 560 nm × 10^3; in assay [3] (setting [4]), 504 ± 53 ΔE at λ = 560 nm × 10^3.

For `CC(C)=CCC/C(C)=C/C=C/C(C)=C/C=C/C(C)=C/C=C/C=C(C)/C=C/C=C(C)/C=C/C=C(\C)CCC=C(C)C` [Lycopene], the results for the StO2 in assay [1] (0 w (prior the trial)) and in assay [1] (setting [4]) were 75 ± 0.73 AUC mm and 85 ± 0.61 AUC mm, respectively. In addition, the LDL in assay [2] (setting [5]) was found to be 156 ± 6.1 mg/dL; in assay [2] (setting [4]), 135 ± 7.0 mg/dL. The results for the OCCL in assay [3] (0 w (prior the trial)) and in assay [3] (setting [4]) were 648 ± 41 ΔE at λ = 560 nm × 10^3 and 786 ± 39 ΔE at λ = 560 nm × 10^3, respectively.

`C=C1CC[C@H](O)C/C1=C/C=C1\CCC[C@]2(C)[C@@H]([C@H](C)CCCC(C)C)CC[C@@H]12` [Vitamin D3]: the StO2 was determined as 66.8 ± 6.0 AUC mm in assay [1] (0 w (prior the trial)) and 71.2 ± 6.8 AUC mm in assay [1] (setting [4]). For the same compound, the “Effect of regular intake on StO2 / peripheral tissue oxygenation (in words)” value in assay [1] is on record as “did not affect”. For the same compound, the LDL in assay [2] (setting [5]) is listed as 156 ± 8.4 mg/dL; in assay [2] (setting [4]) it was 144 ± 5.9 mg/dL. Also, the values for the OCCL in assay [3] (0 w (prior the trial)) and in assay [3] (setting [4]) were 412 ± 48 ΔE at λ = 560 nm × 10^3 and 443 ± 51 ΔE at λ = 560 nm × 10^3, respectively. Further, the “Effect … on OCCL (in words)” value in assay [3] is listed as “did not affect”.

In the case of `COC1=C(OC)C(=O)C(C/C=C(\C)CC/C=C(\C)CC/C=C(\C)CC/C=C(\C)CC/C=C(\C)CC/C=C(\C)CC/C=C(\C)CC/C=C(\C)CC/C=C(\C)CCC=C(C)C)=C(C)C1=O` [Coenzyme Q10], the StO2 amounted to 75.0 ± 7.4 AUC mm in assay [1] (0 w (prior the trial)) and 84.0 ± 8.5 AUC mm in assay [1] (setting [4]). Moreover, in assay [1], the “Effect of regular intake on StO2 / peripheral tissue oxygenation (in words)” value is reported as “significant improvement of peripheral tissue oxygenation”. In addition, the LDL came to 143 ± 5.7 mg/dL in assay [2] (setting [5]) and 140 ± 4.2 mg/dL in assay [2] (setting [4]). In addition, the OCCL in assay [3] (0 w (prior the trial)) is given as 505 ± 66 ΔE at λ = 560 nm × 10^3; in assay [3] (setting [4]), 593 ± 64 ΔE at λ = 560 nm × 10^3. For the same compound, the “Effect … on OCCL (in words)” value in assay [3] was “increase in OCCL”.
